Columns and labels:
Test in all cases: Kinase assay, binding constants (Kd), kinase-tagged T7 phage, qPCR
[1] = target: FGFR1 (Homo sapiens (Human), UniProt P11362)
Method in brief: (§1)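 Competition binding: kinase-tagged T7 phage lysates mixed with immobilized biotinylated ligand on streptavidin beads plus compound (11-point 3-fold dilution series, 0.9% DMSO final). Bound kinase eluted with free ligand and quantified by qPCR. Kd from Hill equation fit, slope fixed at −1.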

[2] = target: FGFR2 (Homo sapiens (Human), UniProt P21802)
Method in brief: as §1

[3] = target: FGFR3 (V555M) (Homo sapiens (Human), UniProt P22607, V555M); conditions: V555M mutant
Method in brief: as §1

[4] = target: FGFR4 (Homo sapiens (Human), UniProt P22455)
Method in brief: as §1

[5] = target: FGFR3 (Homo sapiens (Human), UniProt P22607)
Method in brief: as §1

Sequence of FGFR3 (P22607 23-806): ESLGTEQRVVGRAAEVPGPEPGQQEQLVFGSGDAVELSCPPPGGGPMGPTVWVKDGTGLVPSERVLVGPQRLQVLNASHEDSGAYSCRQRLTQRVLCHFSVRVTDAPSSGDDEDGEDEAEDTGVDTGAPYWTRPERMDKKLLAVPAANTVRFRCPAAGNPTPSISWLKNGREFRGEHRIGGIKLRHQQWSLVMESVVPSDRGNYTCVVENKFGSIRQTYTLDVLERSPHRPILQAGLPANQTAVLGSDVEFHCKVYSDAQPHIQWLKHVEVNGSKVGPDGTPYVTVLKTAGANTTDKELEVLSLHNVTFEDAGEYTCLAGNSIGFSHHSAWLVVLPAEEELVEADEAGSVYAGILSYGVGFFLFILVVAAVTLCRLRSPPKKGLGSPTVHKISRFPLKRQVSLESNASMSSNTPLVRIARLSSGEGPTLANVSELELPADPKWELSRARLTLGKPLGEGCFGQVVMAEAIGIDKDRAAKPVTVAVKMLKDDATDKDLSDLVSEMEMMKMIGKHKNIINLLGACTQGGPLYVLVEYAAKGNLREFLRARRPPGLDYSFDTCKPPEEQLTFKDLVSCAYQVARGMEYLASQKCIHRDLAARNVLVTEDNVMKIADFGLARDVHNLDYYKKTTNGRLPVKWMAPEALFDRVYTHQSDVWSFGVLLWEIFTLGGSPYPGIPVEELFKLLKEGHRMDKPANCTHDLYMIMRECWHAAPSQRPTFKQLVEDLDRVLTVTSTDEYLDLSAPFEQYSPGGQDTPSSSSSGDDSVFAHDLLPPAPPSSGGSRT
Sequence of FGFR3 (V555M) (P22607 23-806 V555M): as the sequence (P22607 23-806) above, with V533M counted along it
Sequence of FGFR2 (P21802 22-821): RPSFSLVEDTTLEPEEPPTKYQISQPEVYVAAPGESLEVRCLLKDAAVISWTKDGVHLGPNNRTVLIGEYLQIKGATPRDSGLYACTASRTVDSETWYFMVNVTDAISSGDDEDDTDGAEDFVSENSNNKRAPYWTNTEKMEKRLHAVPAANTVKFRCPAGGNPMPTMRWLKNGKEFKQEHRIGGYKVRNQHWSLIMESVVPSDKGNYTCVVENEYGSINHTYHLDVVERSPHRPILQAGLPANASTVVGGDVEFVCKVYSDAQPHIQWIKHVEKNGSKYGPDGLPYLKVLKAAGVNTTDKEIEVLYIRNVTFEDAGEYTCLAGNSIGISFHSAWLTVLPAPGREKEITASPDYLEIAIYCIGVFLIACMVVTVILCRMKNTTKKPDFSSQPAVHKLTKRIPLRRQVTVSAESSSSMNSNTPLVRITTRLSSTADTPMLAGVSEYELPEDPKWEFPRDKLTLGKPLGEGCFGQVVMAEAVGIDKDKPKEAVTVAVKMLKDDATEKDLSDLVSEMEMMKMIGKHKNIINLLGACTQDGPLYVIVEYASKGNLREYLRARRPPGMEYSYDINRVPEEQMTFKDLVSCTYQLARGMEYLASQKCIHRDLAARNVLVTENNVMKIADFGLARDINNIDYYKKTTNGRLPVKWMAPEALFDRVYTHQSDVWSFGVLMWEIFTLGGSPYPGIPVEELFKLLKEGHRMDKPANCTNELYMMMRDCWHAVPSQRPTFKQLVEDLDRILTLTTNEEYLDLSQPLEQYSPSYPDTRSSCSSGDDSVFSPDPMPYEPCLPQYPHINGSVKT
Sequence of FGFR1 (P11362 22-822): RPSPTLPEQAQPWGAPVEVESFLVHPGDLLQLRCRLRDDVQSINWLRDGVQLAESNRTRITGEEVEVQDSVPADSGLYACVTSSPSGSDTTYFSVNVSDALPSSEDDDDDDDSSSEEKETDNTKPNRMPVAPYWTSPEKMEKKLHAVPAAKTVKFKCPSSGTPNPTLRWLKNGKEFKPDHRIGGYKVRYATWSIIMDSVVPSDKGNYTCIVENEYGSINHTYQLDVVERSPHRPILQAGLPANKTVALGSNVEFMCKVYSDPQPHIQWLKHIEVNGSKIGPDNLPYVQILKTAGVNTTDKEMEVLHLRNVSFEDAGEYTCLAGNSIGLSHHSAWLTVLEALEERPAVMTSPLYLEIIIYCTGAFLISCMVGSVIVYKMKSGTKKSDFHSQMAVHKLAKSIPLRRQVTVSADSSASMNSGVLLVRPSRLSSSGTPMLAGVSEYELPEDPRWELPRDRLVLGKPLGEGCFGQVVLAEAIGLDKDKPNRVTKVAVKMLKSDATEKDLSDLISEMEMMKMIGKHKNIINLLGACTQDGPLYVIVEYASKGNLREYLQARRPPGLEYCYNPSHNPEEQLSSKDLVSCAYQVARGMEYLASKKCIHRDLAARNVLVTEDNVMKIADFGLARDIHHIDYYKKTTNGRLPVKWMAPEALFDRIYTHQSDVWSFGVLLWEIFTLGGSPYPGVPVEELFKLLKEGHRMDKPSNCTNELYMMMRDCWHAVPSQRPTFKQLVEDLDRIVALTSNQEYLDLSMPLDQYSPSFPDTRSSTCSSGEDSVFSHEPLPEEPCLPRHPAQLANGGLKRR
Sequence of FGFR4 (P22455 22-802): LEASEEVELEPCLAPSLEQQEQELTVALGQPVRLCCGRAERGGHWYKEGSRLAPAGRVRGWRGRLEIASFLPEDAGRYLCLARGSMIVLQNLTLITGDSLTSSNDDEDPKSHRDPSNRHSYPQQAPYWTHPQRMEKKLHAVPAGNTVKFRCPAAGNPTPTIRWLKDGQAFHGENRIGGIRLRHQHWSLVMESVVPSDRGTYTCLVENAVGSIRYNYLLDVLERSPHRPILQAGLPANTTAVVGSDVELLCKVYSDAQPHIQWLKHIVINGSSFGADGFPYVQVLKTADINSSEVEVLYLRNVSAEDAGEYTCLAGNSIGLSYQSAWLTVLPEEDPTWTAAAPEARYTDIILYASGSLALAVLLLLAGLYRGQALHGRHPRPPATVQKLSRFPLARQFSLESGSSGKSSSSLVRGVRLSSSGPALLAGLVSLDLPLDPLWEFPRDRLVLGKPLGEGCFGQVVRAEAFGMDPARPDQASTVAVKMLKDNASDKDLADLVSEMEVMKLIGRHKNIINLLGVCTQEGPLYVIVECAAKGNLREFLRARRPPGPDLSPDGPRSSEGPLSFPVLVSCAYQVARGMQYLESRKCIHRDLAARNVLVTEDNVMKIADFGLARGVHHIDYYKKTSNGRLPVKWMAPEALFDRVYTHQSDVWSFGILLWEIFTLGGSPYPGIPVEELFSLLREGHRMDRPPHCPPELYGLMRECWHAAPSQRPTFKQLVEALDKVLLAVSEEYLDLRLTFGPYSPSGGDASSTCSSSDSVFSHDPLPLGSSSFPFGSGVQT

Row | SMILES | Kd [1] [nM] | Kd [2] [nM] | Kd [3] [nM] | Kd [4] [nM] | Kd [5] [nM]
1 | Cc1cc(-c2n[nH]c3ccc(O[C@H](C)c4c(Cl)cnc(C)c4Cl)cc23)cnc1N1CC2(C1)CN(S(C)(=O)=O)C2 [Example 235, 5-[(1R)-1-(3,5-dichloro-2-methyl-4-pyridyl)ethoxy]-3-[5-methyl-6-(2-methylsulfonyl-2,6-diazaspiro[3.3]heptan-6-yl)-3-pyridyl]-1H-indazole] | 100 to 300 | 100 to 300 | 1 to 20 | 1 to 20 | 1 to 20
2 | C[C@@H](Oc1ccc2[nH]nc(-c3ccc(N4CCC[C@@H]4CO)nc3)c2c1)c1c(Cl)cncc1Cl [Example 236, ((R)-1-(5-(5-((R)-1-(3,5-dichloropyridin-4-yl)ethoxy)-1H-indazol-3-yl)pyridin-2-yl)pyrrolidin-2-yl)methanol] | 20 to 100 | 1 to 20 | 1 to 20 | 1 to 20 | 1 to 20
3 | C[C@@H](Oc1ccc2[nH]nc(-c3ccc(N4CCC[C@H]4CO)nc3)c2c1)c1c(Cl)cncc1Cl [Example 237, ((S)-1-(5-(5-((R)-1-(3,5-dichloropyridin-4-yl)ethoxy)-1H-indazol-3-yl)pyridin-2-yl)pyrrolidin-2-yl)methanol] | 1 to 20 | 1 to 20 | 1 to 20 | 1 to 20 | 1 to 20
4 | COC1CC2(C1)CN(c1ccc(-c3n[nH]c4ccc(O[C@H](C)c5c(Cl)cnc(C)c5Cl)cc34)cn1)C2 [Example 238, 5-[(1R)-1-(3,5-dichloro-2-methyl-4-pyridyl)ethoxy]-3-[6-(6-methoxy-2-azaspiro[3.3]heptan-2-yl)-3-pyridyl]-1H-indazole] | 20 to 100 | 20 to 100 | 1 to 20 | 1 to 20 | 1 to 20
5 | COc1cc2[nH]nc(-c3cnc(N4CC5(C4)CN(S(C)(=O)=O)C5)nc3)c2cc1O[C@H](C)c1c(Cl)cncc1Cl [Example 239, 5-[(1R)-1-(3,5-dichloro-4-pyridyl)ethoxy]-6-methoxy-3-[2-(2-methylsulfonyl-2,6-diazaspiro[3.3]heptan-6-yl)pyrimidin-5-yl]-1H-indazole] | 1 to 20 | 1 to 20 | 1 to 20 | 1 to 20 | 1 to 20
6 | COc1cc2[nH]nc(-c3cnc(N4CC5(C4)CN(S(C)(=O)=O)C5)nc3)c2cc1O[C@H](C)c1c(Cl)cnc(C)c1Cl [Example 240, 5-[(1R)-1-(3,5-dichloro-2-methyl-4-pyridyl)ethoxy]-6-methoxy-3-[2-(2-methylsulfonyl-2,6-diazaspiro[3.3]heptan-6-yl)pyrimidin-5-yl]-1H-indazole] | 1 to 20 | 1 to 20 | 1 to 20 | 1 to 20 | 1 to 20
7 | Cc1ncc(Cl)c([C@@H](C)Oc2ccc3[nH]nc(-c4ccc(N5CCC[C@H]5CO)nc4)c3c2)c1Cl [Example 241, [(2S)-1-[5-[5-[(1R)-1-(3,5-dichloro-2-methyl-4-pyridyl)ethoxy]-1H-indazol-3-yl]-2-pyridyl]pyrrolidin-2-yl]methanol] | 1 to 20 | 20 to 100 | 1 to 20 | 1 to 20 | 1 to 20
8 | COc1cc2[nH]nc(-c3cnc(N4CC5(C4)CN(S(C)(=O)=O)C5)c(F)c3)c2cc1O[C@H](C)c1c(Cl)cncc1Cl [Example 242, 5-[(1R)-1-(3,5-dichloro-4-pyridyl)ethoxy]-3-[5-fluoro-6-(2-methylsulfonyl-2,6-diazaspiro[3.3]heptan-6-yl)-3-pyridyl]-6-methoxy-1H-indazole] | 1 to 20 | 1 to 20 | 1 to 20 | 1 to 20 | 1 to 20
9 | COc1cc2[nH]nc(-c3cnc(N4CC5(C4)CN(S(C)(=O)=O)C5)c(F)c3)c2cc1O[C@H](C)c1c(Cl)cnc(C)c1Cl [Example 243, 5-[(1R)-1-(3,5-dichloro-2-methyl-4-pyridyl)ethoxy]-3-[5-fluoro-6-(2-methylsulfonyl-2,6-diazaspiro[3.3]heptan-6-yl)-3-pyridyl]-6-methoxy-1H-indazole] | 1 to 20 | 1 to 20 | 1 to 20 | 1 to 20 | 1 to 20
10 | Cc1ncc(Cl)c([C@@H](C)Oc2ccc3[nH]nc(-c4cnc(N5CC6(C5)CN(S(C)(=O)=O)C6)c(F)c4)c3c2)c1Cl [Example 244, 5-[(1R)-1-(3,5-dichloro-2-methyl-4-pyridyl)ethoxy]-3-[5-fluoro-6-(2-methylsulfonyl-2,6-diazaspiro[3.3]heptan-6-yl)-3-pyridyl]-1H-indazole] | 20 to 100 | 20 to 100 | 1 to 20 | 1 to 20 | 1 to 20
11 | C[C@@H](Oc1ccc2[nH]nc(-c3ccc(N4CC5(CN(C(=O)C(F)(F)F)C5)C4)nc3)c2c1)c1c(Cl)cncc1Cl [Example 245, 1-[6-[5-[5-[(1R)-1-(3,5-dichloro-4-pyridyl)ethoxy]-1H-indazol-3-yl]-2-pyridyl]-2,6-diazaspiro[3.3]heptan-2-yl]-2,2,2-trifluoro-ethanone] | 1 to 20 | 1 to 20 | 1 to 20 | 1 to 20 | 1 to 20
12 | C[C@@H](Oc1ccc2[nH]nc(-c3ccc(N4CC5(C4)CN(S(C)(=O)=O)C5)nc3)c2c1)c1c(Cl)cnnc1Cl [Example 246, (R)-5-(1-(3,5-dichloropyridazin-4-yl)ethoxy)-3-(6-(6-(methylsulfonyl)-2,6-diazaspiro[3.3]heptan-2-yl)pyridin-3-yl)-1H-indazole] | 1 to 20 | 1 to 20 | 1 to 20 | 1 to 20 | 1 to 20
13 | Cc1ncc(Cl)c([C@@H](C)Oc2ccc3[nH]nc(-c4ccc(N5CC6(CCC(O)C6)C5)nc4)c3c2)c1Cl (stereo partly drawn) [Example 247, 2-[5-[5-[(1R)-1-(3,5-dichloro-2-methyl-4-pyridyl)ethoxy]-1H-indazol-3-yl]-2-pyridyl]-2-azaspiro[3.4]octan-6-ol] | 20 to 100 | 20 to 100 | 1 to 20 | 1 to 20 | 1 to 20
14 | Cc1cc(-c2n[nH]c3ccc(O[C@H](C)c4c(Cl)cncc4Cl)cc23)cnc1N1CC2(C1)CN(S(C)(=O)=O)C2 [Example 248, 5-[(1R)-1-(3,5-dichloro-4-pyridyl)ethoxy]-3-[5-methyl-6-(2-methylsulfonyl-2,6-diazaspiro[3.3]heptan-6-yl)-3-pyridyl]-1H-indazole] | 20 to 100 | 20 to 100 | 1 to 20 | 1 to 20 | 1 to 20
15 | C[C@@H](Oc1ccc2[nH]nc(-c3ccc(N4CC(C(F)(F)F)C4)nc3)c2c1)c1c(Cl)cncc1Cl [Example 249, (R)-5-(1-(3,5-dichloropyridin-4-yl)ethoxy)-3-(6-(3-(trifluoromethyl)azetidin-1-yl)pyridin-3-yl)-1H-indazole] | 20 to 100 | 20 to 100 | 1 to 20 | 1 to 20 | 1 to 20
16 | COc1cc2[nH]nc(-c3cnc(N4CC5(C4)CN(S(C)(=O)=O)C5)c(C)c3)c2cc1O[C@H](C)c1c(Cl)cncc1Cl [Example 250, 5-[(1R)-1-(3,5-dichloro-4-pyridyl)ethoxy]-6-methoxy-3-[5-methyl-6-(2-methylsulfonyl-2,6-diazaspiro[3.3]heptan-6-yl)-3-pyridyl]-1H-indazole] | 1 to 20 | 1 to 20 | 1 to 20 | 1 to 20 | 1 to 20
17 | Cc1cc2[nH]nc(-c3ccc(N4CC5(C4)CN(S(C)(=O)=O)C5)nc3)c2cc1O[C@H](C)c1c(Cl)cncc1Cl [Example 251, (R)-5-(1-(3,5-dichloropyridin-4-yl)ethoxy)-6-methyl-3-(6-(6-(methylsulfonyl)-2,6-diazaspiro[3.3]heptan-2-yl)pyridin-3-yl)-1H-indazole] | 1 to 20 | 1 to 20 | 1 to 20 | 1 to 20 | 1 to 20
18 | C[C@@H](Oc1ccc2[nH]nc(-c3ccc(N4CC(C(F)F)C4)nc3)c2c1)c1c(Cl)cncc1Cl [Example 252, (R)-5-(1-(3,5-dichloropyridin-4-yl)ethoxy)-3-(6-(3-(difluoromethyl)azetidin-1-yl)pyridin-3-yl)-1H-indazole] | 20 to 100 | 20 to 100 | 1 to 20 | 1 to 20 | 1 to 20
19 | C[C@@H](Oc1ccc2[nH]nc(-c3ccc(N4CC(C#N)C4)nc3)c2c1)c1c(Cl)cncc1Cl [Example 253, (R)-1-(5-(5-(1-(3,5-dichloropyridin-4-yl)ethoxy)-1H-indazol-3-yl)pyridin-2-yl)azetidine-3-carbonitrile] | 1 to 20 | 1 to 20 | 1 to 20 | 1 to 20 | 1 to 20
20 | Cc1cc2[nH]nc(-c3cnc(N4CC5(C4)CN(S(C)(=O)=O)C5)c(F)c3)c2cc1O[C@@H](C)c1c(Cl)cnnc1Cl [Example 254, (S)-5-(1-(3,5-dichloropyridazin-4-yl)ethoxy)-3-(5-fluoro-6-(6-(methylsulfonyl)-2,6-diazaspiro[3.3]heptan-2-yl)pyridin-3-yl)-6-methyl-1H-indazole] | > 300 | 100 to 300 | 1 to 20 | > 300 | 20 to 100
21 | C[C@@H](Oc1cc2c(-c3ccc(N4CC5(C4)CN(S(C)(=O)=O)C5)nc3)n[nH]c2cc1F)c1c(Cl)cncc1Cl [Example 255, (R)-5-(1-(3,5-dichloropyridin-4-yl)ethoxy)-6-fluoro-3-(6-(6-(methylsulfonyl)-2,6-diazaspiro[3.3]heptan-2-yl)pyridin-3-yl)-1H-indazole] | 1 to 20 | 1 to 20 | 1 to 20 | 1 to 20 | 1 to 20

Reference: patent US20240109865A1, “INDAZOLE COMPOUNDS AS KINASE INHIBITORS” (TYRA BIOSCIENCES, INC., priority 2020, published 2024)
